Source: US8835171B2, “Materials and methods related to sodium/potassium adenosine triphosphase and cholesterol” (The University of Toledo, priority 2010, dated 2014)
Blank lines part the entries; values can stand above or below the compound they belong to.

What was measured:
Na/K-ATPase α1 [1] = assay: Immunostaining / confocal imaging of Na/K-ATPase α1 distribution in LLC-PK1 cells; format: cell-based, pig
[2] = test system: insulin receptor β subunit; assay: Western blot of insulin receptor in LLC-PK1 cells; format: cell-based, pig
Method: (§1) Protein concentrations of cell lysates or tissue homogenates were measured by Protein Assay Kit from Bio-Rad (Hercules, Calif.). Equal amounts of protein were loaded onto the gel and separated on 10% SDS-PAGE, transferred to an Optitran membrane, and probed with corresponding antibodies. Protein signals were detected with an ECL kit. The density of the Western bands was quantified by the free software Image J.

Na/K-ATPase α1 [3] = assay: Western blot of Na/K-ATPase α1 level in LLC-PK1 cells; format: cell-based, pig
Method: as §1, with “LLC-PK1 cells were grown in 6 cm culture dish to 100% confluence and serum starved for 24 hours. Cells were then treated by 10 mM Mβ-CD for 1 hour. […] Cell lysates were subject to protein assay and Western blot analysis. Protein concentrations” for “Protein concentrations”

LLC-PK1 cells [4] = details: 10 mM Mβ-CD 30-60 minutes at 37°, previous work from the inventors' lab; cited from earlier work
caveolin-1 = assay: Western blot of caveolin-1 in LLC-PK1 cells; format: cell-based, pig; details: U18666A 48 h
Method: as §1

Y55S mutant rat α1 = assay: α1 and filipin staining in Y55S mutant rat α1-rescued cells (PY-17-Y55S); format: cell-based; details: PY-17-Y55S cells, different doses of U18666A 24 h
Text: Next, the inventors mutated the essential Tyr55 in the rat α1 CRAC (corresponds to the Tyr53 in pig α1) to Ser55 by a site-directed mutagenesis method and generated the stable mutant rat α1-rescued cell line (PY-17-Y55S). Once the cell line was established, the inventors did the same experiment as on AAC-19 cells. […] To confirm the findings, the inventors had the CRAC synthesized with a positively charged leader peptide, HIV-TAT, tagged to the N-terminus of CRAC so that the TAT-CRAC peptide was cell permeable. Theoretically, loading of the TAT-CRAC peptide into the cells may interrupt the binding between endogenous α1 and cholesterol by competitive inhibition. […] Taken together, the cholesterol-regulated Na/K-ATPase α1 membrane trafficking is dependent on the cholesterol-α1 interaction.
The rat α1 CRAC mutant (Tyr55 to Ser55) was created by PCR-based site-directed mutagenesis on the pRc/CMV-a1AACm1 plasmid as generated previously. The Y55S mutant rat α1 knock-in cell line was then established using the same protocol described before. The pEYFP-α1 plasmid was generated as described previously. RFP-rab7 plasmid was requested from www.addgene.org. The preparation of plasmid constructs expressing GST fusion proteins were made from pGEX-4T-1 as previously described. GST-NT (Ala1-Ser160) and GST-NT-Y55S expression vectors were constructed based on sequence of pig kidney Na/K-ATPase α1 subunit. […]

LLC-PK1 cells [5] = assay: Cholesterol assay of LLC-PK1 cell lysates; format: cell-based, pig; details: U18666A-treated cells
Method: LLC-PK1 cells were grown in 6 cm culture dish to 100% confluence and serum starved for 24 hours. […] […] Cell lysates were subject to protein assay and Western blot analysis. Cholesterol assay and filipin staining were performed as described in Chen et al., Regulation of intracellular cholesterol distribution by Na/K-ATPase. Journal Biological Chemistry, Volume 284, pages 14881-14890 (2009).

wild-type rat α1 = assay: α1 and filipin staining in wild-type rat α1-rescued cells (AAC-19); format: cell-based; details: AAC-19 cells, different doses of U18666A 24 h
Method: Thus, it was of interest to explore whether the CRAC plays a role in cholesterol depletion-induced α1 endocytosis. Firstly, the inventors treated wild-type rat α1 rescued-cells, AAC-19, with U18666A and stained both α1 and cholesterol. […] Staining of the Na/K-ATPase α1 was performed as previously described. Briefly, cells were serum-starved for 24 hours and treated on coverslips. The cells were then fixed with ice-cold methanol for 30 min and blocked with Signal Enhancer from Invitrogen. Next, cells were incubated with a monoclonal anti-Na/K-ATPase α1 antibody at 4° C. overnight. After three washes with PBS, a secondary Alex 488-conjugated anti-mouse antibody was added and incubated at room temperature for 3 hours. The coverslip was washed, mounted and imaged with a Leica confocal microscope.

cell surface Na/K-ATPase = assay: 3H-ouabain binding assay of cell surface Na/K-ATPase; format: cell-based, pig; details: LLC-PK1 cells, U18666A
Method: [3H]Ouabain Binding was conducted as described in Tian et al., Changes in sodium pump expression dictate the effects of ouabain on cell growth, Journal of Biological Chemistry, 14921-1429 (2009).

LLC-PK1 cells [6] = assay: Filipin staining of cholesterol distribution in LLC-PK1 cells; format: cell-based, pig; details: U18666A 24 h
Method: Cholesterol assay and filipin staining were performed as described in Chen et al., Regulation of intracellular cholesterol distribution by Na/K-ATPase. Journal Biological Chemistry, Volume 284, pages 14881-14890 (2009).

Na/K-ATPase α1 mRNA = assay: Quantitative RT-PCR of α1 mRNA; format: cell-based, pig; details: LLC-PK1 cells, 10 μg/ml U18666A 24 h
Method: The quantitative RT-PCR on mRNA levels of Na/K-ATPase α1 and GAPDH were performed as described in Tian et al., Changes in sodium pump expression dictate the effects of ouabain on cell growth, Journal of Biological Chemistry, 14921-1429 (2009).

[7] = molecular target: T1, purified pig kidney Na/K-ATPase (PKE) (Sus scrofa, UniProt P05024); assay: NBD-cholesterol binding assay with purified pig kidney enzyme (PKE)
T1 construct: Purified Na/K-ATPase membrane samples (PKE) were prepared from pig kidney medulla; from tissue; host or cells: pig kidney outer medulla
Text: As the purified membrane fragments contained large amount of cholesterol, which may already saturated binding sites on the Na/K-ATPase, most of the cholesterol content was extracted by Mβ-CD (FIG. 5B). To study the binding between the Na/K-ATPase and cholesterol, a cholesterol analogue, 25-[N-[(7-nitro-2-1,3-benzoxadiazol-4-yl)methyl]amino]-27-norcholesterol (NBD cholesterol), was used for the binding assay. NBD-cholesterol was used for the study of protein-cholesterol interaction before. Unlike cholesterol, NBD-cholesterol is able to emit fluorescence signals that peak at ˜530 nm when excited at 473 nm because of the replacement of the methyl group at C25 position with an NBD group (FIG. 5C). In the aqueous solution, its fluorescence is largely quenched. However, when it binds to a protein and is exposed to a hydrophobic environment, the fluorescence signals will increase. Moreover, it has much higher critical micelle concentration (˜650 nM) than that of the cholesterol (30 nM) so that higher concentrations of the NBD-cholesterol can be used during the binding assay. […] The Kd value is 100 nM-200 nM.
To further confirm that the results represented lipid-protein interaction instead of lipid-lipid interaction, the inventors measured fluorescence resonance energy transfer (FRET) signals. […]

Compound: C[C@@H]1C[C@@H]([C@H](O)CC2CC(=O)NC(=O)C2)C(=O)[C@@H](C)C1 [cycloheximide]
effect on U18666A-induced α1 redistribution to the intracellular compartments (Na/K-ATPase α1 [1]; cycloheximide 10 μg/ml 1 h before U18666A 24 h): did not prevent

Compound: methyl β-cyclodextrin [Mβ-CD]
α1 immunostaining signals (Na/K-ATPase α1 [1]; Mβ-CD treated LLC-PK1 cells): lower α1 signals from the plasma membrane
expression of insulin receptor ([2]; during cholesterol depletion by Mβ-CD and repletion): unchanged
decrease in α1 level (Na/K-ATPase α1 [3]; 10 mM Mβ-CD 1 h, 0 h recovery): ~40%
plasma membrane cholesterol pool (LLC-PK1 cells [4]): significantly lowered

Compound: CC(CCC[C@@H](C)[C@@H]1CC[C@H]2[C@@H]3CC=C4C[C@@H](O)CC[C@]4(C)[C@H]3CC[C@@]21C)N(C)c1ccc([N+](=O)[O-])c2nonc12 (stereo partly shown) [NBD-cholesterol, 25-[N-[(7-nitro-2-1,3-benzoxadiazol-4-yl)methyl]amino]-27-norcholesterol]
FRET signals at 530 nm on incubation with PKE ([7]; Trp excited at 295 nm): dose-dependent saturation curve

Continued, in another order:

α1 mRNA level (Na/K-ATPase α1 mRNA): no difference compared to control
Compound: CCN(CC)CCO[C@H]1CC[C@@]2(C)C(=CC[C@@H]3[C@@H]2CC[C@]2(C)C(=O)CC[C@@H]32)C1 [U18666A]
caveolin-1 protein level (caveolin-1): downregulated
endocytosis of α1 (Y55S mutant rat α1): no obvious endocytosis
total cellular cholesterol (LLC-PK1 cells [5]): no significant difference
endocytosis of α1 (wild-type rat α1): endocytosis of α1 in a dose-dependent manner
intracellular α1 accumulation, colocalization with RFP-Rab7 (Na/K-ATPase α1 [1]; LLC-PK1 cells transfected with RFP-rab7, 5 μg/ml U18666A 24 h): massive intracellular α1 accumulation, most of which clearly colocalized with the Rab7 signals
colocalization of internalized YFP-α1 with free cholesterol (Na/K-ATPase α1 [1]; LLC-PK1 cells transfected with YFP-α1, 5 μg/ml U18666A 24 h): most of the internalized α1 colocalized with free cholesterol
α1 signals, cellular distribution (Na/K-ATPase α1 [1]; LLC-PK1 cells, U18666A 24 h): reduced in the plasma membrane but increased in the intracellular compartments
insulin receptor content ([2]; LLC-PK1 cells after U18666A treatment): remained undisturbed
cell surface α1 by 3H-ouabain binding (cell surface Na/K-ATPase): downregulation of cell surface α1
distribution of free cholesterol (LLC-PK1 cells [6]): redistribution of free cholesterol from the plasma membrane to intracellular compartments
downregulation of α1 expression (Na/K-ATPase α1 [3]; U18666A 24 h and 48 h): both dose and time-dependent

competition of binding between NBD-cholesterol and purified PKE ([7]; 100 nM PKE, 30 nM NBD-cholesterol, FRET): competed the binding
Compound: CC(C)CCC[C@@H](C)[C@H]1CC[C@H]2[C@@H]3CC=C4C[C@@H](O)CC[C@]4(C)[C@H]3CC[C@]12C [cholesterol]
